Reference: patent US9486457B2, “Use of cinnabarinic acid as a modulator of immune responses in autoimmune disorders” (The Regents of the University of California, priority 2010, dated 2016)
Entries after “also recorded” stand apart in the source; their conditions may differ.

What was measured:
[1] = tested on: human naïve CD4+ T cells; assay: IL-22 induction in cultured human naïve CD4+ T cells stimulated with anti-CD3/anti-CD28 under Th17 polarizing conditions; type: cell-based; settings: CA 25 μM in FIG. 8D
Excerpt: This is AHR dependent as inclusion of an AHR antagonist fully abrogated effect.
FIG. 8: CA is an endogenous AhR agonist generated by oxidative dimerization of 3-HAA. (A) An alternative pathway of 3-HAA metabolism leads to the generation of CA either by non-enzymatic (oxidation) or enzymatic (laccase, ceruloplasmin) processes. CA is structurally similar to the synthetic AhR ligand TCDD. […] Data are representative of three similar experiments.

[2] = molecular target: T1, human AHR protein (Homo sapiens, UniProt P35869); assay: Displacement of TCDD binding to in vitro translated human AHR protein; settings: cell-free
T1 sequence (P35869 11-848): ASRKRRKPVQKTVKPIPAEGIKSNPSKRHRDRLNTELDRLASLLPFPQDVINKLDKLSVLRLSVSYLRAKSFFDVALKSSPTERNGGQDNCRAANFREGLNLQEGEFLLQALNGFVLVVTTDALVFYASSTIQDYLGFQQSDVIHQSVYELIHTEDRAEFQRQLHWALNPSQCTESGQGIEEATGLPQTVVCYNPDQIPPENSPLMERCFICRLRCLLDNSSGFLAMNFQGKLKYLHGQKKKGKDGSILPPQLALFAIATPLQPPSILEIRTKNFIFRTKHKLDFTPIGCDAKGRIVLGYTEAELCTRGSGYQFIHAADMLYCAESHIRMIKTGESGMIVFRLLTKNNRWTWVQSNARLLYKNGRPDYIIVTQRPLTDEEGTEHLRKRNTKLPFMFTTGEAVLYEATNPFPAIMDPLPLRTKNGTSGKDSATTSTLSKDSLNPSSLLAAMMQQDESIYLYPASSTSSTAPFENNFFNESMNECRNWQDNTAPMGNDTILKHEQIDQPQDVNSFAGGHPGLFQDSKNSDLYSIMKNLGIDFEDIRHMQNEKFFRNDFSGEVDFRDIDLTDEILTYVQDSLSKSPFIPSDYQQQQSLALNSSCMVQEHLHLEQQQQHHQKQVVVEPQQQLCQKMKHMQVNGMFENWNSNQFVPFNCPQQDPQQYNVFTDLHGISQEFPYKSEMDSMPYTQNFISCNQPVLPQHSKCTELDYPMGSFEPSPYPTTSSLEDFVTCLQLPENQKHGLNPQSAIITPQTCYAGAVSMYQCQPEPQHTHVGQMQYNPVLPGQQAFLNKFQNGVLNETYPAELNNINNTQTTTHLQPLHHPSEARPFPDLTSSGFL
Excerpt: (§1) We performed a precursory screen of all tryptophan metabolites including both 3-HKA and 3-HAA to bind to and act as agonists or antagonists of the AHR using two separate assays. First we examined the ability of 3-HKyn, 3-HAA, and PA to displace TCDD binding to the human AHR protein in vitro (20). […] We also measured AHR activation using a mouse hepatoma cell line (H1G1) that stably expresses a green fluorescent protein (GFP) reporter construct downstream of a series of dioxin responsive elements (FIG. 7A) (21).

[3] = molecular target: T2, AHR (Mus musculus, UniProt P30561); assay: AHR-responsive (dioxin responsive element) GFP reporter assay in H1G1 mouse hepatoma cells; type: cell-based; settings: for AHR agonist activity (activation of AHR-responsive reporter): agonist mode; for AHR antagonist activity (block of AHR activation by TCDD): antagonist mode, co-treatment with TCDD, H1G1 cells
T2 construct: murine hepatoma cell line stably transfected with an AhR-responsive (AhR-eGFP) reporter construct; endogenous in cells
T2 sequence (P30561 10-848): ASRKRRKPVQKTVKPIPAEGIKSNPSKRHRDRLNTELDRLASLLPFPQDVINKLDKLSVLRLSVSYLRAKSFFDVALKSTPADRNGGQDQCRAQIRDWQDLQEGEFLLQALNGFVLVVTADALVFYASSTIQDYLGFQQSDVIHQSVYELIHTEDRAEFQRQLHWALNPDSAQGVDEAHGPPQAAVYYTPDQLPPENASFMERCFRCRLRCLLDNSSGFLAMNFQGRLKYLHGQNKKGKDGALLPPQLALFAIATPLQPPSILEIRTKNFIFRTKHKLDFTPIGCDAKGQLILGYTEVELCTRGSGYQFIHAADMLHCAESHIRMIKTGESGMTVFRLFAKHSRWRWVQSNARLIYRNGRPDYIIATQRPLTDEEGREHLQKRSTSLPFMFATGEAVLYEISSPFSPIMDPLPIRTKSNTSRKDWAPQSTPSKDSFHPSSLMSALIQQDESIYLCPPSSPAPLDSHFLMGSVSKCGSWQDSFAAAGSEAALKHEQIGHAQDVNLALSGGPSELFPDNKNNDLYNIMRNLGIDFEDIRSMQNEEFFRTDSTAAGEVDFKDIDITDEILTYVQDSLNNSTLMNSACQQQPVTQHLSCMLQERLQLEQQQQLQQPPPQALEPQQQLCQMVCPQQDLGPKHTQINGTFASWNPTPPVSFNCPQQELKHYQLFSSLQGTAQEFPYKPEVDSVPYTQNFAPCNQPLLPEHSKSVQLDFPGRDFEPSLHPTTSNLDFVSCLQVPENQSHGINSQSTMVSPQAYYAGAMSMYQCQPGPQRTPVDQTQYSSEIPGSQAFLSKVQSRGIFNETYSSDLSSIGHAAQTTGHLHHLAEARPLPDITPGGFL
Excerpt: as §1

[4] = tested on: naïve (CD45RA+CCR7+CD95−CD25−) CD4+ T cells; assay: Foxp3 induction in stimulated naïve CD4+ T cells; type: cell-based, human
Excerpt: FIG. 9: The synthetic 3-HAA analogue 3,4 DAA (Tranilast) is an AhR antagonist and promotes the induction of Foxp3 by stimulated CD4+ T cells. (A) 3,4 DAA shares some structural similarities to 3-HAA (highlighted region).
Therefore we asked whether T cells treated with 3,4 DAA might be prompted to differentiate into Treg cells through upregulation of the transcription factor Foxp3 (26).

[5] = tested on: stimulated human CD4+ T cells; assay: IL-22 expression by CD4+ T cells in stimulated human PBMCs / T cells; type: cell-based; settings: for IL-22 expression by CD4+ T cells (Th22 differentiation): stimulated human PBMCs / T cells, 100 μM for 3-HKyn and 3-HAA in FIG. 6A
Excerpt: FIG. 6: 3-HKyn and 3-HAA promote IL-22 expression by stimulated human CD4+ T cells. […] (C) IL-22 induction by 3-HAA is blocked by inhibition of the AhR pathway.
This is highlighted by the observation that AHR−/− mice retain the ability to generate some Th17 cells, but are incapable of generating cells that express IL-22 (16-18). […] To screen for the ability of tryptophan metabolites generated downstream of IDO to activate the AHR, we stimulated human T cells in vitro in the presence of different tryptophan metabolites (3-Hydroxykynurenine (3-HKA), 3-Hydroxyanthranilic Acid (3-HAA), Picolinic Acid (PA), and Quinolinic Acid (QA)) to assess whether any promoted the expansion of CD4+ T cells secreting IL-22. […] To determine whether the induction of IL-22 within this population was dependent upon AHR activation, we next stimulated human T cells in the presence or absence of a potent AHR antagonist (CH-223191) and monitored the induction of IL-22.

[6] = tested on: stimulated human CD4+ T cells; settings: literature (ref 19); cited from earlier work
[7] = tested on: experimental allergic encephalomyelitis (EAE); settings: literature reports (refs 15, 25 as cited in text); cited from earlier work

## Nc1c(O)cccc1C(=O)O [3-HAA, 3-Hydroxyanthranilic Acid]
[1]
  IL-22 induction: only had minimal effects
[2]
  displacement / inhibition of TCDD binding to human AHR: modest binding of 3-HAA only at very high concentrations
[3]
  AHR agonist activity (activation of AHR-responsive reporter): modest increase in AHR activity using 3-HAA as an agonist, this failed to reach significance; also recorded: minimal activation of the AhR; also recorded: no activity in short-term assays
[4]; stimulated naïve CD4+ T cells in vitro
  Foxp3 expression (frequency of CD4+Foxp3+ T cells): promotes Foxp3 upregulation but to a lesser extent
[5]; different donors
  expansion of Th22 cells: ≥ 2 fold
[5]
  IL-22 expression by CD4+ T cells (Th22 differentiation): able to promote the differentiation of Th22 cells; also recorded: leads to the expansion of a population of cells expression the cytokine IL-22; also recorded: promotes IL-22 expression in dose-dependent manner

## Nc1c(O)cccc1C(=O)CC(N)C(=O)O (stereo not shown) [3-HKyn, 3-Hydroxykynurenine]
[2]
  displacement / inhibition of TCDD binding to human AHR: unable to measure any significant displacement
[3]
  AHR agonist activity (activation of AHR-responsive reporter): none of the other metabolites (3-HKyn, PA, QA) were found to have any activity as agonists or antagonists
  AHR antagonist activity (block of AHR activation by TCDD): none of the other metabolites (3-HKyn, PA, QA) were found to have any activity as agonists or antagonists
[5]
  IL-22 expression by CD4+ T cells (Th22 differentiation): leads to the expansion of a population of cells expression the cytokine IL-22
[5]; listed as 3-HKA
  IL-22 expression by CD4+ T cells (Th22 differentiation): able to promote the differentiation of Th22 cells

## Nc1c(C(=O)O)ccc(F)c1O [4-F-3-HAA, 4-fluoro-3-hydroxythranilic acid]
[5]; in the presence of different concentrations of 3-HAA
  effect of HAAO inhibition on the ability of 3-HAA to induce IL-22: stark increase in the ability of 3-HAA to induce IL-22

## Cc1ccccc1N=Nc1ccc(NC(=O)c2ccnn2C)c(C)c1 [CH-223191]
[3]
  AHR antagonist activity (block of AHR activation by TCDD): potent antagonist
[3]; listed as CH223191
  AHR antagonist activity (block of AHR activation by TCDD): positive control
[5]; AHR antagonist added with 3-HAA
  block of IL-22 induction by 3-HAA: significantly abolish IL-22 induction by 3-HAA

## O=Cc1c2c(cc3c1=Nc1ccccc1-3)=Nc1ccccc1-2 [FICZ, 6-formylindolo[3,2-b]carbazole]
[6]
  frequency of CD4+ T cells that produce IL-22 (Th22), as previously reported: promoted a significant increase in the frequency of CD4+ T cells that produced IL-22
[7]
  effect on EAE as previously reported: increased disease severity

## O=C(O)c1ccccn1 [PA, Picolinic Acid]
[2]
  displacement / inhibition of TCDD binding to human AHR: unable to measure any significant displacement
[3]
  AHR agonist activity (activation of AHR-responsive reporter): none of the other metabolites (3-HKyn, PA, QA) were found to have any activity as agonists or antagonists
  AHR antagonist activity (block of AHR activation by TCDD): none of the other metabolites (3-HKyn, PA, QA) were found to have any activity as agonists or antagonists

## O=C(O)c1cccnc1C(=O)O [QA, Quinolinic Acid]
[3]
  AHR agonist activity (activation of AHR-responsive reporter): none of the other metabolites (3-HKyn, PA, QA) were found to have any activity as agonists or antagonists
  AHR antagonist activity (block of AHR activation by TCDD): none of the other metabolites (3-HKyn, PA, QA) were found to have any activity as agonists or antagonists

## NC(=O)c1ccc(-c2nc(-c3ccc4c(c3)OCO4)c(-c3ccccn3)[nH]2)cc1 [SB-431542]
[4]; TGFβ signaling inhibitor added
  reversal of Foxp3 upregulation by 3,4 DAA and 3-HAA: reversed the ability of 3,4 DAA and 3-HAA to upregulate Foxp3

## Clc1cc2c(cc1Cl)Oc1cc(Cl)c(Cl)cc1O2 [TCDD, 2,3,7,8-tetrachlorodibenzodioxin]
[7]
  effect on EAE as previously reported: protective

## NCCc1c[nH]c2ccccc12 [Tryptamine, tryptamine]
[3]
  AHR agonist activity (activation of AHR-responsive reporter): positive control
